# Laboratory results: ChEMBL document CHEMBL1201862, “PubChem BioAssay data set” (2004)
#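 96-well plates; 48 h exposure; 5 concentrations. Endpoints by linear interpolation between flanking doses. Not reached: highest tested concentration assigned. At the GI50, growth is halved.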 The source made the active and inactive calls. Cut-off read from the data, not from the text of the source: active = GI50 up to about 1.1 µM and inactive = higher.
# Legend:
# Assay in all cases: growth of human tumour cells (NCI), 48 h
# [1] = system: LOX IMVI
# [2] = system: UACC-257
# [3] = system: NCI-H23
# [4] = system: A549
# [5] = system: OVCAR-3
# [6] = system: HCT-15
# [7] = system: U-251
# [8] = system: TK-10
# [9] = system: NCI-H226
# [10] = system: SR
# [11] = system: SF-268
# [12] = system: OVCAR-4
# [13] = system: SF-295
# [14] = system: SNB-78
# [15] = system: HT-29
# [16] = system: OVCAR-5
# [17] = system: SN12C
# [18] = system: M14
# [19] = system: MOLT-4
# [20] = system: NCI-H522
# [21] = system: HOP-18
# [22] = system: SK-MEL-5
# [23] = system: 786-0
# [24] = system: K562
# [25] = system: SW-620
# [26] = system: UO-31
# [27] = system: RPMI-8226
# [28] = system: SK-MEL-28
# [29] = system: XF498
# [30] = system: RXF 393
# [31] = system: EKVX
# [32] = system: HL-60
# [33] = system: OVCAR-8
# [34] = system: HOP-92
# [35] = system: CAKI-1
# [36] = system: DMS-114
# [37] = system: DLD-1
# [38] = system: KM-20L2
# [39] = system: KM12
# [40] = system: SK-MEL-2
# [41] = system: SNB-75
# [42] = system: SNB-19
# [43] = system: HCC 2998
# [44] = system: M19-MEL
# [45] = system: CCRF-CEM
# [46] = system: NCI-H460
# [47] = system: ACHN
# [48] = system: Malme-3M
# [49] = system: HOP-62
# [50] = system: SF-539
# [51] = system: COLO 205
# [52] = system: UACC-62
# [53] = system: DMS-273
# [54] = system: SK-OV-3
# [55] = system: LXFL 529
# [56] = system: IGROV-1
# [57] = system: HCT-116
# [58] = system: A498
structure (smiles),measurement,setting,value
Cc1cccc2c1C(=O)OC2(C)c1cccc2ccccc12 (configuration not stated),GI50,[1],30.3 µM (inactive)
same,GI50,[2],34.2 µM (inactive)
same,GI50,[3],30.8 µM (inactive)
same,GI50,[4],35.2 µM (inactive)
same,GI50,[5],26.9 µM (inactive)
same,GI50,[6],29 µM
same,GI50,[7],26.2 µM (inactive)
same,GI50,[8],29.5 µM (inactive)
same,GI50,[9],26.5 µM (inactive)
same,GI50,[10],23.2 µM (inactive)
same,GI50,[11],28.4 µM (inactive)
same,GI50,[12],22.4 µM (inactive)
same,GI50,[13],32.1 µM (inactive)
same,GI50,[14],73.6 µM (inactive)
same,GI50,[15],30.5 µM (inactive)
same,GI50,[16],> 100 µM (inactive)
same,GI50,[17],21.2 µM (inactive)
same,GI50,[18],13 µM (inactive)
same,GI50,[19],26.2 µM (inactive)
same,GI50,[20],16.8 µM (inactive)
same,GI50,[21],> 100 µM (inactive)
same,GI50,[22],16.4 µM (inactive)
same,GI50,[23],30.9 µM (inactive)
same,GI50,[24],16.4 µM (inactive)
same,GI50,[25],30.3 µM (inactive)
same,GI50,[26],32.8 µM (inactive)
same,GI50,[27],25.4 µM (inactive)
same,GI50,[28],41.3 µM (inactive)
same,GI50,[29],4.86 µM (inactive)
same,GI50,[30],22.6 µM (inactive)
same,GI50,[31],35.7 µM (inactive)
same,GI50,[32],16.4 µM (inactive)
same,GI50,[33],32.3 µM (inactive)
same,GI50,[34],18.6 µM (inactive)
same,GI50,[35],19.8 µM (inactive)
same,GI50,[36],43.1 µM (inactive)
same,GI50,[37],30.5 µM (inactive)
same,GI50,[38],24.4 µM (inactive)
same,GI50,[39],27.6 µM (inactive)
same,GI50,[40],23.8 µM (inactive)
same,GI50,[41],9.71 µM (inactive)
same,GI50,[42],78.5 µM (inactive)
same,GI50,[43],20.9 µM (inactive)
same,GI50,[44],50 µM (inactive)
same,GI50,[45],17.5 µM (inactive)
same,GI50,[46],29.7 µM (inactive)
same,GI50,[47],30.6 µM (inactive)
same,GI50,[48],25.5 µM (inactive)
Cc1ccn2c(c1)nc1nc3ccccc3nc12,GI50,[1],> 100 µM (inactive)
same,GI50,[2],> 100 µM (inactive)
same,GI50,[49],> 100 µM (inactive)
same,GI50,[50],> 100 µM (inactive)
same,GI50,[3],> 100 µM (inactive)
same,GI50,[51],> 100 µM (inactive)
same,GI50,[4],> 100 µM (inactive)
same,GI50,[5],> 100 µM (inactive)
same,GI50,[6],> 100 µM
same,GI50,[7],> 100 µM (inactive)
same,GI50,[8],> 100 µM (inactive)
same,GI50,[52],> 100 µM (inactive)
same,GI50,[9],> 100 µM (inactive)
same,GI50,[10],> 100 µM (inactive)
same,GI50,[11],> 100 µM (inactive)
same,GI50,[12],> 100 µM (inactive)
same,GI50,[13],> 100 µM (inactive)
same,GI50,[14],> 100 µM (inactive)
same,GI50,[15],> 100 µM (inactive)
same,GI50,[16],> 100 µM (inactive)
same,GI50,[18],> 100 µM (inactive)
same,GI50,[20],> 100 µM (inactive)
same,GI50,[22],> 100 µM (inactive)
same,GI50,[23],> 100 µM (inactive)
same,GI50,[24],> 100 µM (inactive)
same,GI50,[25],> 100 µM (inactive)
same,GI50,[53],> 100 µM (inactive)
same,GI50,[26],> 100 µM (inactive)
same,GI50,[27],> 100 µM (inactive)
same,GI50,[28],> 100 µM (inactive)
same,GI50,[29],> 100 µM (inactive)
same,GI50,[30],> 100 µM (inactive)
same,GI50,[31],> 100 µM (inactive)
same,GI50,[32],> 100 µM (inactive)
same,GI50,[33],> 100 µM (inactive)
same,GI50,[34],> 100 µM (inactive)
same,GI50,[35],> 100 µM (inactive)
same,GI50,[36],> 100 µM (inactive)
same,GI50,[37],> 100 µM (inactive)
same,GI50,[54],59.6 µM (inactive)
same,GI50,[38],> 100 µM (inactive)
same,GI50,[55],> 100 µM (inactive)
same,GI50,[39],> 100 µM (inactive)
same,GI50,[40],> 100 µM (inactive)
same,GI50,[41],78.5 µM (inactive)
same,GI50,[42],> 100 µM (inactive)
same,GI50,[56],> 100 µM (inactive)
same,GI50,[44],> 100 µM (inactive)
same,GI50,[45],> 100 µM (inactive)
same,GI50,[46],> 100 µM (inactive)
same,GI50,[47],96.6 µM (inactive)
Cn1c(=O)c2nc(N3CCOCC3)cnc2n(C)c1=O,GI50,[2],> 100 µM (inactive)
same,GI50,[49],> 100 µM (inactive)
same,GI50,[50],> 100 µM (inactive)
same,GI50,[3],> 100 µM (inactive)
same,GI50,[51],> 100 µM (inactive)
same,GI50,[4],> 100 µM (inactive)
same,GI50,[5],> 100 µM (inactive)
same,GI50,[6],> 100 µM
same,GI50,[7],> 100 µM (inactive)
same,GI50,[8],> 100 µM (inactive)
same,GI50,[52],> 100 µM (inactive)
same,GI50,[10],> 100 µM (inactive)
same,GI50,[11],> 100 µM (inactive)
same,GI50,[12],> 100 µM (inactive)
same,GI50,[13],> 100 µM (inactive)
same,GI50,[14],> 100 µM (inactive)
same,GI50,[15],> 100 µM (inactive)
same,GI50,[16],> 100 µM (inactive)
same,GI50,[17],> 100 µM (inactive)
same,GI50,[18],> 100 µM (inactive)
same,GI50,[19],> 100 µM (inactive)
same,GI50,[20],> 100 µM (inactive)
same,GI50,[22],> 100 µM (inactive)
same,GI50,[24],> 100 µM (inactive)
same,GI50,[25],> 100 µM (inactive)
same,GI50,[53],> 100 µM (inactive)
same,GI50,[26],> 100 µM (inactive)
same,GI50,[27],> 100 µM (inactive)
same,GI50,[28],> 100 µM (inactive)
same,GI50,[29],> 100 µM (inactive)
same,GI50,[31],> 100 µM (inactive)
same,GI50,[32],> 100 µM (inactive)
same,GI50,[33],> 100 µM (inactive)
same,GI50,[57],> 100 µM (inactive)
same,GI50,[34],> 100 µM (inactive)
same,GI50,[35],> 100 µM (inactive)
same,GI50,[36],> 100 µM (inactive)
same,GI50,[37],> 100 µM (inactive)
same,GI50,[54],> 100 µM (inactive)
same,GI50,[38],> 100 µM (inactive)
same,GI50,[55],> 100 µM (inactive)
same,GI50,[39],> 100 µM (inactive)
same,GI50,[40],> 100 µM (inactive)
same,GI50,[41],> 100 µM (inactive)
same,GI50,[42],> 100 µM (inactive)
same,GI50,[43],> 100 µM (inactive)
same,GI50,[56],> 100 µM (inactive)
same,GI50,[44],> 100 µM (inactive)
same,GI50,[45],> 100 µM (inactive)
same,GI50,[58],> 100 µM (inactive)
same,GI50,[46],> 100 µM (inactive)
same,GI50,[47],> 100 µM (inactive)
same,GI50,[48],> 100 µM (inactive)
N#CC1=C(N)N2C(=O)/C(=C/c3ccccc3)SC2C(c2nc3ccccc3[nH]2)=C1c1ccccc1 (configuration not stated),GI50,[1],1.73 µM (inactive)
same,GI50,[2],4.55 µM (inactive)
same,GI50,[49],2.44 µM (inactive)
same,GI50,[50],1.91 µM (inactive)
same,GI50,[3],1.85 µM (inactive)
same,GI50,[51],5.98 µM (inactive)
same,GI50,[4],3.87 µM (inactive)
same,GI50,[5],1.89 µM (inactive)
same,GI50,[6],2.95 µM
same,GI50,[7],2.44 µM (inactive)
same,GI50,[8],2.42 µM (inactive)
same,GI50,[52],2.17 µM (inactive)
same,GI50,[9],1.93 µM (inactive)
same,GI50,[10],1.91 µM (inactive)
same,GI50,[11],2.42 µM (inactive)
same,GI50,[12],2.42 µM (inactive)
same,GI50,[13],2.53 µM (inactive)
same,GI50,[14],2.52 µM (inactive)
same,GI50,[15],4.03 µM (inactive)
same,GI50,[16],2.54 µM (inactive)
same,GI50,[17],2.91 µM (inactive)
same,GI50,[18],2.44 µM (inactive)
same,GI50,[19],2.4 µM (inactive)
same,GI50,[20],1.86 µM (inactive)
same,GI50,[22],1.83 µM (inactive)
same,GI50,[23],2.72 µM (inactive)
same,GI50,[24],5.32 µM (inactive)
same,GI50,[25],3.68 µM (inactive)
same,GI50,[53],2.07 µM (inactive)
same,GI50,[26],1.93 µM (inactive)
same,GI50,[28],3.12 µM (inactive)
same,GI50,[29],2.11 µM (inactive)
same,GI50,[31],2.23 µM (inactive)
same,GI50,[32],2.31 µM (inactive)
same,GI50,[33],2.46 µM (inactive)
same,GI50,[57],3.45 µM (inactive)
same,GI50,[34],0.687 µM (active)
same,GI50,[35],2.07 µM (inactive)
same,GI50,[36],2.16 µM (inactive)
same,GI50,[37],3.26 µM (inactive)
same,GI50,[54],1.68 µM (inactive)
same,GI50,[38],2.75 µM (inactive)
same,GI50,[55],2.49 µM (inactive)
same,GI50,[39],3.55 µM (inactive)
same,GI50,[40],2.04 µM (inactive)
same,GI50,[41],1.74 µM (inactive)
same,GI50,[42],3.4 µM (inactive)
same,GI50,[43],1.57 µM (inactive)
same,GI50,[56],2.19 µM (inactive)
same,GI50,[44],2.88 µM (inactive)
same,GI50,[45],1.96 µM (inactive)
same,GI50,[58],2.12 µM (inactive)
same,GI50,[46],3.09 µM (inactive)
same,GI50,[47],3.67 µM (inactive)
same,GI50,[48],1.75 µM (inactive)
